Data from patent US6444684B1 (priority 1993, dated 2002).

Assays:
[1] = tested on: H/1.2 = ras^H Transformed NRKE Cells; settings: H/1.2 = ras^H transformed NRKE cells, compared with normal NRKE cells
[2] = tested on: N/4.2-NRKE transformed by the human ras^N gene; settings: N/4.2 = ras^N transformed NRK cells, compared with normal NRKE cells
[3] = tested on: K/1 = ras^K Transformed NRKE Cells; settings: for Differential Index K/1: K/1 = ras^K transformed NRKE cells, compared with normal NRKE cells
[4] = tested on: 3LL = Lewis Lung Carcinoma Cells; settings: 3LL = Lewis lung carcinoma cells, compared with normal NRKE cells
Breast Cancer cell lines = experiment: NCI in vitro anticancer screen (SRB), breast cancer subpanel; settings: 48 hours exposure; average percent growth over the cell lines
Procedure: (§1) Compounds chosen for the program are initially tested in an in vitro anticancer screen. A total of fifty-five human tumor cell lines, derived from nine cancer types (lung, colon, melanoma, renal, ovarian, brain, prostate, breast and leukemia), are used in this screen. The tumor cells are inoculated over a series of standard 96-well microtiter plates on day 0. These cells are then preincubated on the microtiter plates for 24 hours. The test compounds are added to the wells in five 10-fold dilutions starting from the highest soluble concentration. Each compound is tested against every cell line in the panel. The compounds are incubated for 48 hours with the tumor cell lines. At the termination of the assay, the cells are fixed in situ, washed, and dried. Sulforhodamine B (SRB), a pink anionic dye that binds to the basic amino acids of trichloroacetic acid-fixed cells, is added. The cells are washed again, and the remaining dye is a function of the adherent cell mass. The bound stain is solubilized and measured spectrophotometrically. The data are entered from automatic reading devices into a computer for subsequent storage and analysis.
(§2) The measured effect of each test compound on the cell lines is calculated according to one or the other of the following two expressions:
(§3) If (Mean ODtest−Mean ODtzero)□0, then PG=100×(Mean ODtest−Mean ODtzero)/(Mean ODctrl−Mean ODtzero);
(§4) If (Mean ODtest−Mean ODtzero)<0, then PG=100×(Mean ODtest−Mean ODtzero)/Meantzero;

CNS Cancer cell lines = experiment: NCI in vitro anticancer screen (SRB), CNS cancer subpanel; settings: 48 hours exposure; average percent growth over the cell lines
Procedure: as §1, §2, §3, §4
(§5) First, a data sheet is provided which lists, for each cell line, the Mean ODtzero, the Mean ODctrl, the Mean ODtest for each of the five concentrations, the calculated PGs for each concentration, and the response parameters G150, TGI, and LC50.
(§6) Third, mean graphs at each of the principal response parameters (GI50, TGI, and LC50) are provided. […] Since the bar scale is logarithmic, a bar two units to the right implies the compound achieved the response parameter (e.g., GI50) for the cell line at a concentration 1/100 the mean concentration required over all cell lines, and thus the cell line is unusually sensitive to that compound. Bars extending to the left correspondingly imply sensitivity less than the mean. Thus, the mean graphs facilitate visual scanning of data for potential patterns of selectivity for particular cell lines or for particular subpanels with respect to a selected response parameter.

Leukemia cell lines = experiment: NCI in vitro anticancer screen (SRB), leukemia subpanel; settings: 48 hours exposure; average percent growth over the cell lines
Procedure: as §1, §2, §3, §4, §5, §6

[5] = tested on: Ovarian Cancer cell lines; experiment: NCI in vitro anticancer screen (SRB), ovarian cancer subpanel; settings: 48 hours exposure; average percent growth over the cell lines
Procedure: as §1, §2, §3, §4

Renal Cancer cell lines = experiment: NCI in vitro anticancer screen (SRB), renal cancer subpanel; settings: 48 hours exposure; average percent growth over the cell lines
Procedure: as §1, §2, §3, §4, §5, §6

[6] = tested on: Non-Small Cell Lung Cancer cell lines; experiment: NCI in vitro anticancer screen (SRB), non-small cell lung cancer subpanel; settings: 48 hours exposure; average percent growth over the cell lines
Procedure: as §1, §2, §3, §4, §5, §6

[7] = tested on: Prostate Cancer cell lines; experiment: NCI in vitro anticancer screen (SRB), prostate cancer subpanel; settings: 48 hours exposure; average percent growth over the cell lines
Procedure: as §1, §2, §3, §4

Melanoma cell lines = experiment: NCI in vitro anticancer screen (SRB), melanoma subpanel; settings: 48 hours exposure; average percent growth over the cell lines
Procedure: as §1, §2, §3, §4, §5, §6

Colon Cancer cell lines = experiment: NCI in vitro anticancer screen (SRB), colon cancer subpanel; settings: 48 hours exposure; average percent growth over the cell lines
Procedure: as §1, §2, §3, §4

HIV-RT = HIV-RT (Human immunodeficiency virus type 1 group M subtype B, UniProt P03366); experiment: HIV-RT inhibition by AZT-TP, lavendamycin analogs and their combinations; assay type: biochemical; design: unit of the concentration uncertain; settings: LA Conc. 0 (unit uncertain); for % inh. ave.: average of three trials
Source text: AZT-TP was used for these in vitro studies since AZT is naturally phosphorylated in vivo.
The results of these tests are given in Table XVIII and XIX below, where the percent inhibition of HIV-RT activity is reported for three different trials and then averaged in the seventh column. […] .

[8] = tested on: K/1-NRKE tumor (ras^K-transformed NRKE cells); settings: mouse, in vivo
[9] = AZT-TP Conc. 0.01 (unit uncertain)
[10] = AZT-TP Conc. 0.05 (unit uncertain)

| SMILES | Differential Index H/1.2 [1] | Differential Index N/4.2 [2] | Differential Index K/1 [3] | Differential Index 3LL [4] | other results |
| --- | --- | --- | --- | --- | --- |
| CCCC(=O)NC1=CC(=O)c2ccc(-c3nc(C(=O)OCCC(C)C)cc4c3[nH]c3ccccc34)nc2C1=O [Compound 13, 7-N-BUTYRYLDEMETHYLLAVENDAMYCIN ISOAMYL ESTER] | 2.70 | 1.53 | 1.67 | 0.42 |  |
| CC(=O)NC1=CC(=O)c2ccc(-c3nccc4c3[nH]c3ccccc34)nc2C1=O [Compound 6] | 1.00 | 0.82 | 0.91 | 0.13 |  |
| CCCC(=O)NC1=CC(=O)c2ccc(-c3nc(C(=O)OC)c(C)c4c3[nH]c3ccccc34)nc2C1=O [Compound 11, 7-N-BUTYRYLLAVENDAMYCIN METHYL ESTER] | 0.80 | 0.76 | 0.97 | 0.39 |  |
| CCCCCCCCOC(=O)c1cc2c([nH]c3ccccc32)c(-c2ccc3c(n2)C(=O)C(NC(=O)CCl)=CC3=O)n1 [Compound 10, 7-N-CHLOROACETYLDEMETHYLLAVENDAMYCIN OCTYL ESTER] | i1.0 | i1.0 | >2.2 | i1.0 |  |
| CCCCOC(=O)c1cc2c([nH]c3ccc(OC)cc32)c(-c2ccc3c(n2)C(=O)C(NC(C)=O)=CC3=O)n1 [Compound 4] | 1.19 | 1.14 | 1.14 | <0.75 |  |
| CCCCOC(=O)c1cc2c([nH]c3ccc(F)cc32)c(-c2ccc3c(n2)C(=O)C(NC(C)=O)=CC3=O)n1 [Compound 5] | 0.88 | 0.74 | 1.88 | 0.29 |  |
| CCCCOC(=O)c1cc2c([nH]c3ccccc32)c(-c2ccc3c(n2)C(=O)C(NC(=O)CCC)=CC3=O)n1 [Compound 12] | 1.61 | 0.94 | 1.32 | 0.29 |  |
| CC(=O)NC1=CC(=O)c2ccc(-c3nc(C(=O)O)cc4c3[nH]c3ccccc34)nc2C1=O [Compound 2] | 1.36 | 1.50 | 2.14 | 0.38 | Activity (Average PG for highest dose tested) Breast Cancer (Breast Cancer cell lines): −32.6%; Activity (Average PG for highest dose tested) CNS Cancer (CNS Cancer cell lines): −26.6%; Activity (Average PG for highest dose tested) Leukemia (Leukemia cell lines): −34.7%; Activity (Average PG for highest dose tested) Ovarian Cancer [5]: −62.7%; Activity (Average PG for highest dose tested) Renal Cancer (Renal Cancer cell lines): −74.6%; Activity (Average PG for highest dose tested) Non-Small Cell Lung Cancer [6]: −27.9%; Activity (Average PG for highest dose tested) Prostate Cancer [7]: −45.5%; Activity (Average PG for highest dose tested) Melanoma (Melanoma cell lines): −53.7%; Activity (Average PG for highest dose tested) Colon Cancer (Colon Cancer cell lines): −43.6% |
| Cc1cn([C@H]2C[C@H](N=[N+]=[N-])[C@@H](COP(=O)(O)OP(=O)(O)OP(=O)(O)O)O2)c(=O)[nH]c1=O [AZT-TP, 3′-azido-3′-deoxythymidine 5′-triphosphate, reference compound] |  |  |  |  | % inh. Trial 1 (HIV-RT; [9]): 27%; % inh. Trial 2 (HIV-RT; [9]): 27%; % inh. Trial 3 (HIV-RT; [9]): 29%; % inh. ave. (HIV-RT; [9]): 27.7%; % inh. Trial 1 (HIV-RT; [10]): 51%; % inh. Trial 2 (HIV-RT; [10]): 52%; % inh. Trial 3 (HIV-RT; [10]): 49%; % inh. ave. (HIV-RT; [10]): 50.7% |
| CCCCCCCCOC(=O)c1cc2c([nH]c3ccccc32)c(-c2ccc3c(n2)C(=O)C(N)=CC3=O)n1 [Compound 57, demethyllavendamycin octyl ester] |  |  |  |  | Activity (Average PG for highest dose tested) Breast Cancer (Breast Cancer cell lines): +96.0%; Activity (Average PG for highest dose tested) CNS Cancer (CNS Cancer cell lines): +81.0%; Activity (Average PG for highest dose tested) Leukemia (Leukemia cell lines): +90.8%; Activity (Average PG for highest dose tested) Ovarian Cancer [5]: +89.3%; Activity (Average PG for highest dose tested) Renal Cancer (Renal Cancer cell lines): +68.7%; Activity (Average PG for highest dose tested) Non-Small Cell Lung Cancer [6]: +89.8%; Activity (Average PG for highest dose tested) Prostate Cancer [7]: +94.5%; Activity (Average PG for highest dose tested) Melanoma (Melanoma cell lines): +89.4%; Activity (Average PG for highest dose tested) Colon Cancer (Colon Cancer cell lines): +100.3% |
| Cc1ccc2c(n1)C(=O)C(NC(=O)C(C)C)=CC2=O [Compound 29] | 1.03 | 1.3 | 0.2 | 2.1 |  |
| O=P1(N(CCCl)CCCl)NCCCO1 (stereo not shown) [CY, cyclophosphamide, reference compound] |  |  |  |  | Number Dead Number Treated ([8]; female, CD1 nu/nu): 0/7; Percent Wt. Change (g) [8]: −3.0 ″ 0.09 g |
| CC(C)C(=O)NC1=CC(=O)c2ccc(C=O)nc2C1=O [Compound 25] | ˜1.0 | ˜1.0 | >1.5 | >3.3 |  |
| Cc1ccc2c(n1)C(=O)C(N)=C(Cl)C2=O [Compound 59, 7-Amino-6-Chloro-2-Methylquinoline-5,8-Dione] | 1.25 | 1.14 | 1.25 | 0.63 |  |
| COC(=O)c1nc(-c2ccc3c(n2)C(=O)C(NC(=O)CCl)=CC3=O)c2[nH]c3ccccc3c2c1C [Compound 7, 7-N-CHLOROACETYLLAVENDAMYCIN METHYL ESTER] | 1.00 | 0.76 | 0.73 | 0.29 |  |
| CC(C)CCOC(=O)c1cc2c([nH]c3ccccc32)c(-c2ccc3c(n2)C(=O)C(NC(=O)CCl)=CC3=O)n1 [Compound 9, 7-N-CHLOROACETYLDEMETHYLLAVENDAMYCIN ISOAMYL ESTER] | 1.02 | 1.13 | 2.41 | 0.42 |  |
| CC(=O)NC1=CC(=O)c2ccc(-c3nc(C(=O)OCCC(C)C)cc4c3[nH]c3ccccc34)nc2C1=O [Compound 20] |  |  |  |  | Activity (Average PG for highest dose tested) Breast Cancer (Breast Cancer cell lines): −38.6%; Activity (Average PG for highest dose tested) CNS Cancer (CNS Cancer cell lines): −49.5%; Activity (Average PG for highest dose tested) Leukemia (Leukemia cell lines): −4.0%; Activity (Average PG for highest dose tested) Ovarian Cancer [5]: −42.2%; selective toxicity against ras^K oncogene bearing tumor cells as compared to the normal, non-transformed cells ([3]; LC50 NRKE divided by LC50 K/1): 18 fold; Activity (Average PG for highest dose tested) Renal Cancer (Renal Cancer cell lines): −56.1%; Activity (Average PG for highest dose tested) Non-Small Cell Lung Cancer [6]: −19.1%; tumor growth inhibition in vivo (in words) [8]: excellent tumor growth inhibition; Activity (Average PG for highest dose tested) Prostate Cancer [7]: −70.5%; Activity (Average PG for highest dose tested) Melanoma (Melanoma cell lines): −75.2%; Activity (Average PG for highest dose tested) Colon Cancer (Colon Cancer cell lines): −53.0% |
| CCCCOC(=O)c1cc2c([nH]c3ccccc32)c(-c2ccc3c(n2)C(=O)C(NC(=O)C(C)C)=CC3=O)n1 [Compound 15] | 1.48 | 1.80 | 2.25 | 1.00 |  |
| CCCCCCCCOC(=O)c1cc2c([nH]c3ccccc32)c(-c2ccc3c(n2)C(=O)C(NC=O)=CC3=O)n1 [Compound 56, 7-N-formyldemethyllavendamycin octyl ester] | i1.00 | >1.5 | >1.57 | >1.03 | Activity (Average PG for highest dose tested) Breast Cancer (Breast Cancer cell lines): −42.3%; Activity (Average PG for highest dose tested) CNS Cancer (CNS Cancer cell lines): −36.8%; Activity (Average PG for highest dose tested) Leukemia (Leukemia cell lines): −29.7%; Activity (Average PG for highest dose tested) Ovarian Cancer [5]: −57.3%; Activity (Average PG for highest dose tested) Renal Cancer (Renal Cancer cell lines): −51.3%; Activity (Average PG for highest dose tested) Non-Small Cell Lung Cancer [6]: −28.8%; Activity (Average PG for highest dose tested) Prostate Cancer [7]: +14.0%; Activity (Average PG for highest dose tested) Melanoma (Melanoma cell lines): −39.9%; Activity (Average PG for highest dose tested) Colon Cancer (Colon Cancer cell lines): −30.0% |
| CCCCCCCCOC(=O)c1cc2c([nH]c3ccccc32)c(-c2ccc3c(n2)C(=O)C(NC(=O)CCC)=CC3=O)n1 [Compound 14, 7-N-BUTYRYLDEMETHYLLAVENDAMYCIN OCTYL ESTER] | >2.06 | >2.2 | >10.0 | >2.06 |  |
